Laboratory results as given in PubChem BioAssay (NCI).
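The compound was tested at five concentrations on cells cultured in 96-well plates, with a 48-hour exposure period. GI50 = concentration required for 50% inhibition of growth. At the TGI there is no net growth.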

How the values were obtained:
Experiment in all cases: inhibition of tumour cell growth, NCI panel, 48 h
SK-MEL-28 melanoma = test system: SK-MEL-28 melanoma
COLO 205 colon = test system: COLO 205 colon
RXF 393 renal = test system: RXF 393 renal
UO-31 renal = test system: UO-31 renal
MALME-3M melanoma = test system: MALME-3M melanoma
DU-145 prostate = test system: DU-145 prostate
NCI-H226 lung = test system: NCI-H226 lung
HCT-116 colon = test system: HCT-116 colon
HCC-2998 colon = test system: HCC-2998 colon
LOX IMVI melanoma = test system: LOX IMVI melanoma
A498 renal = test system: A498 renal
HL-60(TB) leukemia = test system: HL-60(TB) leukemia
K-562 leukemia = test system: K-562 leukemia
SF-268 CNS = test system: SF-268 CNS
KM12 colon = test system: KM12 colon
M14 melanoma = test system: M14 melanoma
HCT-15 colon = test system: HCT-15 colon
SK-OV-3 ovarian = test system: SK-OV-3 ovarian
U251 CNS = test system: U251 CNS
BT-549 breast = test system: BT-549 breast
SK-MEL-2 melanoma = test system: SK-MEL-2 melanoma
SNB-75 CNS = test system: SNB-75 CNS
MOLT-4 leukemia = test system: MOLT-4 leukemia
CCRF-CEM leukemia = test system: CCRF-CEM leukemia
MDA-MB-435 = test system: MDA-MB-435
OVCAR-3 ovarian = test system: OVCAR-3 ovarian
NCI-H522 lung = test system: NCI-H522 lung
HOP-62 NSCLC = test system: HOP-62 NSCLC
SR leukemia = test system: SR leukemia
EKVX NSCLC = test system: EKVX NSCLC
SNB-19 CNS = test system: SNB-19 CNS
SF-295 CNS = test system: SF-295 CNS
RPMI-8226 leukemia = test system: RPMI-8226 leukemia
HOP-92 NSCLC = test system: HOP-92 NSCLC
T-47D breast = test system: T-47D breast
OVCAR-4 ovarian = test system: OVCAR-4 ovarian
CAKI-1 renal = test system: CAKI-1 renal
SN12C renal = test system: SN12C renal
PC-3 prostate = test system: PC-3 prostate
A549 NSCLC = test system: A549 NSCLC
UACC-62 melanoma = test system: UACC-62 melanoma
NCI/ADR-RES ovarian = test system: NCI/ADR-RES ovarian
HS 578T breast = test system: HS 578T breast
HT29 colon = test system: HT29 colon
SW-620 colon = test system: SW-620 colon
UACC-257 melanoma = test system: UACC-257 melanoma
TK-10 renal = test system: TK-10 renal
MDA-MB-231 breast = test system: MDA-MB-231 breast
SF-539 CNS = test system: SF-539 CNS
ACHN renal = test system: ACHN renal
NCI-H460 lung = test system: NCI-H460 lung
SK-MEL-5 melanoma = test system: SK-MEL-5 melanoma
786-0 renal = test system: 786-0 renal
MCF7 breast = test system: MCF7 breast
OVCAR-8 ovarian = test system: OVCAR-8 ovarian
IGROV1 ovarian = test system: IGROV1 ovarian
OVCAR-5 ovarian = test system: OVCAR-5 ovarian

## O=C(Nc1cc(Cl)cc(Cl)c1)Nc1ccc2oc(=O)ccc2c1
SK-MEL-28 melanoma
  GI50: 3.71 µM
  TGI: 13.7 µM
COLO 205 colon
  GI50: 2.19 µM
  TGI: 4.63 µM
RXF 393 renal
  GI50: 2.57 µM
  TGI: 6.72 µM
UO-31 renal
  GI50: 1.94 µM
  TGI: 7.48 µM
MALME-3M melanoma
  GI50: 2.64 µM
  TGI: 7.42 µM
DU-145 prostate
  GI50: 3.87 µM
  TGI: 13.8 µM
NCI-H226 lung
  GI50: 2.67 µM
  TGI: 8.81 µM
HCT-116 colon
  GI50: 2.31 µM
  TGI: 8.7 µM
HCC-2998 colon
  GI50: 3.24 µM
  TGI: 11.4 µM
LOX IMVI melanoma
  GI50: 2.04 µM
  TGI: 4.66 µM
A498 renal
  GI50: 2.59 µM
  TGI: 7.07 µM
HL-60(TB) leukemia
  GI50: 1.27 µM
  TGI: 4.43 µM
K-562 leukemia
  GI50: 2.34 µM
  TGI: 18 µM
SF-268 CNS
  GI50: 3.91 µM
  TGI: 17.2 µM
KM12 colon
  GI50: 3.05 µM
  TGI: 10.8 µM
M14 melanoma
  GI50: 3.39 µM
  TGI: 11.9 µM
HCT-15 colon
  GI50: 2.69 µM
  TGI: 10.9 µM
SK-OV-3 ovarian
  GI50: 2.24 µM
  TGI: 5.7 µM
U251 CNS
  GI50: 2.43 µM
  TGI: 7.51 µM
BT-549 breast
  GI50: 2.86 µM
  TGI: 9.06 µM
SK-MEL-2 melanoma
  GI50: 2.03 µM
  TGI: 4.84 µM
SNB-75 CNS
  GI50: 2.24 µM
  TGI: 14 µM
MOLT-4 leukemia
  GI50: 2.32 µM
  TGI: 7.31 µM
CCRF-CEM leukemia
  GI50: 2.3 µM
  TGI: 7.62 µM
MDA-MB-435
  GI50: 2.77 µM
  TGI: 10.2 µM
OVCAR-3 ovarian
  GI50: 3.24 µM
  TGI: 13.1 µM
NCI-H522 lung
  GI50: 1.39 µM
  TGI: 4.01 µM
HOP-62 NSCLC
  GI50: 2.98 µM
  TGI: 9.87 µM
SR leukemia
  GI50: 1.98 µM
  TGI: 5.82 µM
EKVX NSCLC
  GI50: 2.87 µM
  TGI: 12.4 µM
SNB-19 CNS
  GI50: 3.73 µM
  TGI: 15.2 µM
SF-295 CNS
  GI50: 2.34 µM
  TGI: 6.05 µM
RPMI-8226 leukemia
  GI50: 1.53 µM
  TGI: 4.89 µM
HOP-92 NSCLC
  GI50: 1.86 µM
  TGI: 5.52 µM
T-47D breast
  GI50: 1.93 µM
  TGI: 7.5 µM
OVCAR-4 ovarian
  GI50: 3.23 µM
  TGI: 14.1 µM
CAKI-1 renal
  GI50: 2.28 µM
  TGI: 7.49 µM
SN12C renal
  GI50: 2.92 µM
  TGI: 10.6 µM
PC-3 prostate
  GI50: 1.9 µM
  TGI: 11 µM
A549 NSCLC
  GI50: 2.9 µM
  TGI: 12.2 µM
UACC-62 melanoma
  GI50: 2.92 µM
  TGI: 12.3 µM
NCI/ADR-RES ovarian
  GI50: 2.47 µM
  TGI: 8.91 µM
HS 578T breast
  GI50: 3.14 µM
  TGI: 14.5 µM
HT29 colon
  GI50: 2.59 µM
  TGI: 9.86 µM
SW-620 colon
  GI50: 3.5 µM
  TGI: 13.5 µM
UACC-257 melanoma
  GI50: 2.23 µM
  TGI: 6.78 µM
TK-10 renal
  GI50: 3.12 µM
  TGI: 9.51 µM
MDA-MB-231 breast
  GI50: 2.75 µM
  TGI: 7.87 µM
SF-539 CNS
  GI50: 2.9 µM
  TGI: 8.98 µM
ACHN renal
  GI50: 3.3 µM
  TGI: 11.2 µM
NCI-H460 lung
  GI50: 2.27 µM
  TGI: 7.39 µM
SK-MEL-5 melanoma
  GI50: 1.66 µM
  TGI: 3.11 µM
786-0 renal
  GI50: 3.08 µM
  TGI: 11.7 µM
MCF7 breast
  GI50: 2.28 µM
  TGI: 8.09 µM
OVCAR-8 ovarian
  GI50: 2.73 µM
  TGI: 11 µM
IGROV1 ovarian
  GI50: 3.28 µM
  TGI: 15.1 µM
OVCAR-5 ovarian
  GI50: 3.19 µM
  TGI: 12.1 µM
